Where “and” joins values, the source holds several entries; their conditions need not be identical. Equal values may be shown once.
Columns and labels:
[1] = tested on: Tera-2 testicular cancer cells; experiment: MTT cytotoxicity assay of vanadocenes, TERA-2 cells; format: cell-based, human; conditions: 24 h, 1.9-250 μM
Outline: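 Cells seeded in triplicate, after 24 h exposed to two-fold serial dilutions of vanadocenes (1.9–250 μM; DMSO vehicle, 0.25% DMSO control) for 24 h. MTT added for 4 h at 37 °C, formazan dissolved in SDS/HCl overnight, OD read at 540 nm; IC50 values reported.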

NALM-6 cells = experiment: MTT cytotoxicity assay of oxovanadium(IV) compounds, NALM-6; format: cell-based, human; conditions: 48 hr
Experimental: The cytotoxicity of oxovanadium (W) complexes listed in Table 6 were tested against 9 different human cancer cell lines was performed using the MTT (3-[4,5-dimethylthiazol-2-yl]-2,5-diphenyl tetrazolium bromide) assay (Boehringer Mannheim Corp., Indianapolis, Ind.) as described previously (20). Briefly, exponentially growing tumor cells were seeded into a 96-well plate at a density of 4×10^4cells/well and incubated with medium containing the oxovanadium(IV) compounds concentrations ranging from 0.1 to 250 μM for 48 hours at 37° C. in a humidified 5% CO2 atmosphere. Triplicate wells were used for each treatment. To each well, 10 μl of MTT (0.5 mg/ml final concentration) was added and the plates were incubated at 37° C. for 4 hours to allow MTT to form formazan crystals by reacting with metabolically active cells . The formazan crystals were solubilized overnight at 37° C. in a solution containing 10% SDS in 0.01 M HCl. The absorbence of each well was measured in a microplate reader (Labsystems) at 540 nm and a reference wavelength of 690 nm. To translate the OD540 values into the number of live cells in each well, the OD540 values were compared to those on standard OD540—versus—cell number curves generated for each cell line. The percent survival was calculated using the formula: % survival=Live cell number[test]/Live cell number [control]×100. The IC50 values were calculated by non-linear regression analysis using an Graphpad Prism software version 2.0 (Graphpad Software, Inc., San Diego, Calif.).

## [Cl-].[Cl-].[V+4].c1cc[cH-]c1.c1cc[cH-]c1 [VDC, VCp2Cl2]
[1]
  IC50: 80.6 µM and 81 µM

## bis(4,7-dimethyl-1,10-phenanthroline)sulfatooxovanadium(IV) [Compound 29]
NALM-6 cells
  IC50: 0.2 ± 0.03 µM
